Laboratory results from PMC3499525 (PLoS ONE, 2012).

Key:
[1] = system: phosphorylated p42 and p44 MAPK in PC12 cells; assay: p42/44 MAPK activation in PC12 cells (Western blot); type: cell-based, rat
Description: (§1) Phosphorylation of MAPK was analyzed in cell lysates and the loading of the lanes normalized to levels of non-phospho MAPK.
(§2) PC12 cells originated from rat pheochromocytoma purchased from ATCC, were grown to confluence in T75 flasks, containing DMEM (1000 mg/l glucose) and supplemented with 5% fetal calf serum (FCS), 10% horse serum, and a mixture of 1% of penicillin/streptomycin/nystatin [11]. NRVM cultures were prepared from ventricles of 1–2 day old Sprague-Dawley rats, as previously described (ethics number Il-106-11-2007). Briefly, the ventricles of the excised hearts were dissociated with 0.1% RDB, a protease isolated from fig tree extract (Institute of Biology, Nes-Ziona,Israel), and the dispersed cells were resuspended in F-10 culture medium containing 1 mM CaCl2, 100 U/mL penicillin-streptomycin, 5% FCS, 5% donor horse serum, and 25 mg of bromodeoxyuridine (5-bromo-2′-deoxyuridine, BrdU).Cell cultures were incubated at 37°C in a humid 5% CO2-95% air environment. For all experiments, cells were initially seeded in full-serum cultured media and then replaced into serum-free media containing the respective supplements.
PC12 cells or NRVM cultures were resuspended in RIPA (20 mM Tris–HCl pH 7.4, 200 mM NaCl, 1% Triton-X 100, 0.1% SDS, 0.2% sodium deoxycholate, 5 mM EDTA) containing cocktail protease inhibitors (Roche, Basel Switzerland). The lysates were precleared by centrifugation. Protein content was determined using the Bradford method (Sigma Chemical Co. St. Louis, MO, USA).Equal amounts of sample were resolved on sodium dodecyl sulfate-polyacrylamide gel electrophoresis (SDS-PAGE) and blotted onto polyvinylidenedifluoride membranes (Millipore, Billerica, MA, USA). Membranes were treated with blocking buffer (5% dry milk, 0.05% Tween 20 in TBS). Primary antibodies were diluted in the blocking buffer and incubated with membranes for 20 h at 4°C followed by incubation (1 h at room temperature) in dilutions of horseradish peroxidase-conjugated secondary antibodies in the same buffer. Following antibody incubations, membranes were washed in 0.5% Tween 20 TBS. Detection was achieved using Western blotting ECL reagent (Amersham, Pharmacia, Little Chalfort Buckinghamshire, UK). Quantification of the results was accomplished by measuring the optical density of the labeled bands from the autoradiograms, using the computerized imaging program Bio-1D (VilberLourmat Biotech. Bioprof., France). The values were normalized to β-actin intensity levels.

[2] = system: phosphorylated p42 and p44 MAPK in neonatal rat ventricular myocytes (NRVM); assay: p42/44 MAPK activation in NRVM (Western blot); type: cell-based
Description: PC12 cells originated from rat pheochromocytoma purchased from ATCC, were grown to confluence in T75 flasks, containing DMEM (1000 mg/l glucose) and supplemented with 5% fetal calf serum (FCS), 10% horse serum, and a mixture of 1% of penicillin/streptomycin/nystatin [11]. NRVM cultures were prepared from ventricles of 1–2 day old Sprague-Dawley rats, as previously described (ethics number Il-106-11-2007). […]
as §1
PC12 cells or NRVM cultures were resuspended in RIPA (20 mM Tris–HCl pH 7.4, 200 mM NaCl, 1% Triton-X 100, 0.1% SDS, 0.2% sodium deoxycholate, 5 mM EDTA) containing cocktail protease inhibitors (Roche, Basel Switzerland). […] Protein content was determined using the Bradford method (Sigma Chemical Co. St. Louis, MO, USA).Equal amounts of sample were resolved on sodium dodecyl sulfate-polyacrylamide gel electrophoresis (SDS-PAGE) and blotted onto polyvinylidenedifluoride membranes (Millipore, Billerica, MA, USA). […] Quantification of the results was accomplished by measuring the optical density of the labeled bands from the autoradiograms, using the computerized imaging program Bio-1D (VilberLourmat Biotech. Bioprof., France). […]

[3] = system: neonatal rat ventricular myocytes (NRVM); assay: Serum deprivation-induced apoptosis in NRVM (TUNEL); type: cell-based; settings: serum free medium, efaroxan 10 µM pre-incubation, TVP1022 20 µM
Description: as §2, with “For all experiments, cells were initially seeded in full-serum cultured media and then replaced into serum-free media containing the respective supplements.” left out
In situ DNA fragmentation was performed by the terminal deoxynucleotidyl transferase-mediated deoxyuridine triphosphate-digoxigenin nick end labeling (TUNEL). […] Quantification of the apoptotic cells was calculated as the ratio of TUNEL-positive cells to the total number of cells in the same slide.
NRVM cells were incubated in full serum medium for 24 h before replacing to serum free medium. […] B. Representative Western blots and quantitative results of cleaved caspase 3 protein expression. […]

[4] = system: cleaved caspase 3 in NRVM; assay: Cleaved caspase 3 in serum-deprived NRVM (Western blot); type: cell-based, rat; settings: serum free medium, efaroxan 10 µM, TVP1022 20 µM
Description: NRVM cells were incubated in full serum medium for 24 h before replacing to serum free medium. […] A. Apoptotic nuclei were identified by TUNEL analysis. […] B. Representative Western blots and quantitative results of cleaved caspase 3 protein expression. The loading of the lanes was normalized to β-actin levels.
PC12 cells or NRVM cultures were resuspended in RIPA (20 mM Tris–HCl pH 7.4, 200 mM NaCl, 1% Triton-X 100, 0.1% SDS, 0.2% sodium deoxycholate, 5 mM EDTA) containing cocktail protease inhibitors (Roche, Basel Switzerland). The lysates were precleared by centrifugation. Protein content was determined using the Bradford method (Sigma Chemical Co. St. Louis, MO, USA).Equal amounts of sample were resolved on sodium dodecyl sulfate-polyacrylamide gel electrophoresis (SDS-PAGE) and blotted onto polyvinylidenedifluoride membranes (Millipore, Billerica, MA, USA). Membranes were treated with blocking buffer (5% dry milk, 0.05% Tween 20 in TBS). […] Quantification of the results was accomplished by measuring the optical density of the labeled bands from the autoradiograms, using the computerized imaging program Bio-1D (VilberLourmat Biotech. Bioprof., France). […]

I2 imidazoline receptor = I2 imidazoline receptor binding assay ([3H]idazoxan); settings: [3H]idazoxan 2 nM, rat cerebral cortex
Description: (§3) The specific ligand binding to the receptors is defined as the difference between the total binding and the nonspecific binding determined in the presence of an excess of unlabelled ligand, as described in Table 1.
(§4) The specific ligand binding to the receptors is defined as the difference between the total binding and the nonspecific binding determined in the presence of an excess of unlabelled ligand (Table 1). The IC50 values (concentration causing a half-maximal inhibition of control specific binding) and Hill coefficients (nH) were determined by non-linear regression analysis of the competition curves generated with mean replicate values using Hill equation curve fitting [Y = D+((A – D)/(1+(C/C50) nH)], where Y = specific binding, D = minimum specific binding, A = maximum specific binding, C = compound concentration, C50 = IC50, and nH = slope factor). This analysis was performed using SigmaPlot ® 4.0 for Windows ® (© 1997 by SPSS Inc.). The inhibition constants (Ki) were calculated using the Cheng Prusoffequation [Ki = IC50/(1+(L/KD)], where L = concentration of radioligand in the assay, and KD = affinity of the radioligand for the receptor).

I1 imidazoline receptor = I1 imidazoline receptor binding assay ([3H]clonidine); settings: [3H]clonidine 15 nM, bovine adrenal medulla glands
Description: as §3, §4

Compound: COc1cccc(-c2cc(=O)c3ccccc3o2)c1N [PD98059]
- effect on TVP1022-induced increase of MAPK phosphorylation ([1]; PD98059 30 µM pretreatment 30 min, TVP1022 20 µM): significantly blocked
- effect on TVP1022-induced ERK phosphorylation ([2]; PD98059 30 µM pre-incubation 30 min): abolished

Compound: CCC1(C2=NCCN2)Cc2ccccc2O1 (stereo not drawn) [efaroxan]
- effect on TVP1022-induced MAPK activation ([1]; efaroxan 10 µM pre-incubation 30 min, TVP1022 20 µM): abolished
- effect on moxonidine-induced phosphorylation of p42 and p44 MAPK ([1]; efaroxan 10 µM pre-incubation, moxonidine 1 µM): abolished
- effect on TVP1022-induced cytoprotective effect (TUNEL) [3]: markedly prevented
- effect on TVP1022-suppressive effects on caspase 3 [4]: markedly reversed
- effect on TVP1022-mediated increases in p42 and p44 MAPK phosphorylation ([2]; efaroxan 10 µM pre-incubation, TVP1022 10 and 20 µM): antagonized

Compound: c1ccc2c(c1)OCC(C1=NCCN1)O2 (stereo not drawn) [idazoxan, reference compound]
- IC50 (I2 imidazoline receptor; 30 min 22°C): 16 nM
- Ki (I2 imidazoline receptor; Cheng Prusoff equation): 10 nM

Compound: COc1nc(C)nc(Cl)c1N=C1NCCN1 [monoxidine, moxonidine]
- effect on phosphorylation of p42 and p44 MAPK ([1]; 1 µM, 30 min): increased

Compound: C1COC(NC(C2CC2)C2CC2)=N1 [rilmenidine, reference compound]
- IC50 (I1 imidazoline receptor; 60 min 22°C): 160 nM
- Ki (I1 imidazoline receptor; Cheng Prusoff equation): 84 nM
